In one assay the test system is GIPR. The following applies: maximum response compared with human GIP; ref Sparre-Ulrich et al., 2016; Bailey, 2020; cited from earlier work. An excerpt:
Species differences in class B1 receptor responsiveness are diversified and receptor specific, which is tolerable for some receptors such as GLP-1R and GCGR, but leads to concerns for others like GIPR and parathyroid hormone receptor-2 (PTH2R) ([Sparre-Ulrich et al., 2016]; [Hoare et al., 1999]). […] Such a divergence is not caused by changes in peptide potency, but r ...

The subject of a further assay is GCGR. The following applies: cognate receptor, ref Yuliantie et al., 2020, Darbalaei et al.; cited from earlier work.
The target in assay [1] is T1, human GIPR Y68A, HA-Flag-3GSA-GIPR(22-466) (human) (UniProt P48546).
T1 sequence: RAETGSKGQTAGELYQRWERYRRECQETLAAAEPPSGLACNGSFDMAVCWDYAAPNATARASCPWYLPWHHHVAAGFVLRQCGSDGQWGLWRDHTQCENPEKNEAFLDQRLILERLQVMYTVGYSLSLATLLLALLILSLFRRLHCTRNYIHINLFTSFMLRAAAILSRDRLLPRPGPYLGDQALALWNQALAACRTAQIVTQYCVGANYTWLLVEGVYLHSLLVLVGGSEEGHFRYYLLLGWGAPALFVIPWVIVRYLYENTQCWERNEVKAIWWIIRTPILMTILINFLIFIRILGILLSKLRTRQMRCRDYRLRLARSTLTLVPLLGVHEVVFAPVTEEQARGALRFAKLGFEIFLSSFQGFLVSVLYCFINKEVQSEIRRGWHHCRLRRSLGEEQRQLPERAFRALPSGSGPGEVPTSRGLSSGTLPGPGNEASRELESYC

With “Human (Pro3)GIP: full agonist with identical maximum response as human GIP (YAPGTFISDYSIAMDKIHQQDFVNWLLAQKGKKNDWKHNITQ; Gastric inhibitory polypeptide; UniProt P09681 52-93, looked up, variant E3P)”, the agonism result in the assay on GIPR is recorded as “full agonist with identical maximum response as human GIP”. Broadly, the pIC50 is the negative decadic logarithm of the IC50, by convention in mol/L. For glucagon, in the assay with GCGR, the pIC50 is listed as 7.31.

Take “glucose-dependent insulinotropic polypeptide GIP(1-42) (from UniProt P09681 52-93)”: the GIP(1-42)-stimulated cAMP accumulation in HEK 293T cells, pEC50 in assay [1] was 6.79.

The record behind these values is publication PMC8298097 (eLife, 2021).
